# Measured values taken from US9890138B2, “Diaminopyrimidine derivatives and processes for the preparation thereof” (YUHAN CORPORATION, priority 2011, dated 2018).
# Counter-ions that a name gives are not always drawn.
# Target: T1, human 5-HT4(a) (Homo sapiens, UniProt Q13639)
# T1 construct: host or cells: GeneBlAzer HTR4-CRE-bla CHO-K1 cells
# Assay: Evaluation of agonistic activity in CHO-K1 cells expressing human 5-HT4(a) (GeneBlAzer HTR4-CRE-bla CHO-K1, beta-lactamase reporter)
# Assay type: cell-based
# Conditions: CHO-K1 cells stably expressing human 5-HT4(a)
# Method in brief: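 Agonism read as CRE-driven β-lactamase activity: emission ratio 465/535 nm (excitation 410 nm) after 2 h substrate loading. Preceded by 5 h compound treatment, 8 concentrations, 1% DMSO in the added solution, of overnight-plated reporter CHO-K1 cells; EC50 by non-linear regression.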
# T1 sequence (Q13639 1-387 isoform Q13639-2): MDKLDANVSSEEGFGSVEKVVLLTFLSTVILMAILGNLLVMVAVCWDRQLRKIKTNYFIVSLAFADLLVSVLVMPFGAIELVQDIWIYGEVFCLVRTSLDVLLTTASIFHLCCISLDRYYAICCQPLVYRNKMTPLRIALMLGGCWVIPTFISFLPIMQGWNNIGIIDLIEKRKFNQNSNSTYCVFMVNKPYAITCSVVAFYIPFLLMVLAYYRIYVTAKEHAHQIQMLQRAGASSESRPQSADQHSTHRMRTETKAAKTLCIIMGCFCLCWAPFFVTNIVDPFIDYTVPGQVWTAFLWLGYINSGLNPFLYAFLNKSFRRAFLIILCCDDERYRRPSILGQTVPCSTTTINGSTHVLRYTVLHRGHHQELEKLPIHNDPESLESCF
row,SMILES,EC50
1,CCCc1cc(N2CCC[C@H]2CO)nc(Nc2ccc(N)c(C(F)(F)F)c2)n1 [Example 211],0.019 nM
2,"CCCc1cc(N2CC[C@H](NC(=O)CCN3CCCCC3)C2)nc(Nc2cccc(C#N)c2)n1 [Example 63, (S)-N-{1-[2-(3-cyanophenylamino)-6-propylpyrimidin-4-yl]pyrrolidin-3-yl}-3-(piperidin-1-yl)propanamide]",0.13 nM
3,CCCc1cc(N2CC[C@H](NC)C2)nc(Nc2ccc(N)c([N+](=O)[O-])c2)n1 [Example 175],0.229 nM
4,CCCNC[C@@H]1CCCN1c1cc(CCC)nc(Nc2cccc(C#N)c2)n1 [Example 406],0.402 nM
5,"CCCc1cc(N2CCC(NC(C)=O)C2)nc(Nc2ccc(Cl)c([N+](=O)[O-])c2)n1 (centres unmarked) [Example 297, N-{1-[2-(4-chloro-3-nitrophenylamino)-6-propylpyrimidin-4-yl]pyrrolidin-3-yl}acetamide]",0.028 nM
6,"CCCc1cc(N2CCC[C@H]2COC)nc(Nc2ccc(F)c(C#N)c2)n1 [Example 43, (S)-2-fluoro-5-{4-[2-(methoxymethyl)pyrrolidin-1-yl]-6-propylpyrimidin-2-ylamino}benzonitrile]",0.178 nM
7,"CCCc1cc(N2CCC[C@H]2COC)nc(Nc2cccc(C(F)(F)F)c2)n1 [Example 36, (S)-4-[2-(methoxymethyl)pyrrolidin-1-yl]-6-propyl-N-[3-(trifluoromethyl)phenyl]pyrimidin-2-amine]",0.243 nM
8,"CCCc1cc(N2CC[C@H](NS(C)(=O)=O)C2)nc(Nc2ccc(C)c(C#N)c2)n1 [Example 431, (S)—N-{1-[2-(3-cyano-4-methylphenylamino)-6-propylpyrimidin-4-yl]pyrrolidin-3-yl}methanesulfonamide]",0.029 nM
9,CCCCc1cc(N2CC[C@H](N(CC)CC)C2)nc(Nc2ccc(C)c(C#N)c2)n1 [Example 239],0.115 nM
10,"CCCc1cc(N2CC[C@H](N(CC3CC3)CC3CC3)C2)nc(Nc2cccc(C#N)c2)n1 [Example 100, (S)-3-(4-{3-[bis (cyclopropylmethyl)amino]pyrrolidin-1-yl}-6-propylpyrimidin-2-ylamino)benzonitrile]",0.31 nM
11,CCCc1cc(N2CCC[C@@H]2CO)nc(Nc2ccc3cc[nH]c3c2)n1 [Example 186],0.382 nM
12,CCCc1cc(N2CC[C@H](NC(=O)Cc3ccccc3)C2)nc(Nc2ccc(C)c(C#N)c2)n1 [Example 426],0.079 nM
13,"CCCc1cc(N2CC[C@H](NC(=O)Cc3cccs3)C2)nc(Nc2cccc(C#N)c2)n1 [Example 80, (S)-N-{1-[2-(3-cyanophenylamino)-6-propylpyrimidin-4-yl]pyrrolidin-3-yl}-2-(thiophen-2-yl)acetamide]",0.17 nM
14,CCCc1cc(N2CCC[C@H]2C)nc(Nc2ccc(F)c(N)c2)n1 [Example 333],0.024 nM
15,CCCc1cc(N2CCC(NC(C)=O)C2)nc(Nc2ccc(F)c(N)c2)n1 (centres unmarked) [Example 312],0.023 nM
16,CCCCc1cc(N2CCC[C@H]2C)nc(Nc2cccc(C#N)c2)n1 [Example 225],0.052 nM
17,CCCc1cc(N2CCC[C@H]2CO)nc(Nc2cccc(SC)c2)n1 [Example 195],0.25 nM
18,"CCCc1cc(N2CC[C@H](NC(=O)Cc3cccnc3)C2)nc(Nc2cccc(C#N)c2)n1 [Example 77, (S)-N-{1-[2-(3-cyanophenylamino)-6-propylpyrimidin-4-yl]pyrrolidin-3-yl}-2-(pyridin-3-yl)acetamide]",0.15 nM
19,"CCCc1cc(N2CC[C@H](NC(C)C(C)(C)O)C2)nc(Nc2cccc(C#N)c2)n1 (stereo partly drawn) [Example 131, (S)-3-{4-[3-(3-hydroxy-3-methylbutan-2-ylamino)pyrrolidin-1-yl]-6-propylpyrimidin-2-ylamino}benzonitrile]",0.091 nM

# These reach a lower EC50. Values come first.
row,EC50,SMILES
1,0.015 nM,CCCc1cc(N2CCC[C@H]2CO)nc(Nc2ccc3cc[nH]c3c2)n1 [Example 185]
2,0.015 nM,CCCc1cc(N2CC[C@H](NCCCSC)C2)nc(Nc2ccc(C)c(C#N)c2)n1 [Example 415]
3,0.014 nM,CCCc1cc(N2CC[C@H](NC(=O)CO)C2)nc(Nc2ccc(N)c(C(F)(F)F)c2)n1 [Example 476]
4,0.014 nM,CCCc1cc(N2CC[C@H](NC(C)=O)C2)nc(Nc2ccc(F)c(C(F)(F)F)c2)n1 [Example 253]
5,0.0093 nM,CCCc1cc(N2CC[C@H](NC(=O)CO)C2)nc(Nc2ccc(C)c(C(F)(F)F)c2)n1 [Example 481]
6,0.0075 nM,CCCCc1cc(N2CC[C@H](NC(C)=O)C2)nc(Nc2cc(N)cc(C#N)c2)n1 [Example 439]
7,0.0047 nM,"CCCc1cc(N2CC[C@H](NC(C)=O)C2)nc(Nc2ccc(N)c([N+](=O)[O-])c2)n1 [Example 286, (S)—N-{1-[2-(4-amino-3-nitrophenylamino)-6-propylpyrimidin-4-yl]pyrrolidin-3-yl}acetamide hydrochloride]"
8,0.004 nM,CCCc1cc(N2CCC(NCC)C2)nc(Nc2ccc(C)c(C#N)c2)n1 (centres unmarked) [Example 173]
9,0.0033 nM,"CCCc1cc(N2CC[C@H](NCC3CC3)C2)nc(Nc2cccc([N+](=O)[O-])c2)n1 [Example 375, (S)-4-[3-(cyclopropylmethylamino)pyrrolidin-1-yl]-N-(3-nitrophenyl)-6-propylpyrimidin-2-amine]"
10,0.0025 nM,CCCCc1cc(N2CC[C@H](NCC)C2)nc(Nc2ccc(F)c(N)c2)n1 [Example 470]
11,0.0021 nM,CCCCc1cc(N2CC[C@H](NCC)C2)nc(Nc2ccc(F)c([N+](=O)[O-])c2)n1 [Example 463]
12,0.0018 nM,"CCCc1cc(N2CC[C@H](NC(C)=O)C2)nc(Nc2ccc(C)c([N+](=O)[O-])c2)n1 [Example 249, (S)—N-{1-[2-(4-methyl-3-nitrophenylamino)-6-propylpyrimidin-4-yl]pyrrolidin-3-yl}acetamide]"
13,0.0016 nM,CCCCc1cc(N2CC[C@H](NC)C2)nc(Nc2ccc(N)c(C(F)(F)F)c2)n1 [Example 453]
